# Experimental data taken from US9216968B2, “Heterocyclic derivative and pharmaceutical drug” (NIPPON SHINYAKU CO., LTD., priority 2011, dated 2015).
# Counter-ions that a name gives are not always drawn.
# Assays:
# human mPGES-1 = human mPGES-1 (Homo sapiens (Human), UniProt O14684); test: mPGES-1 inhibiting activity (microsome fractions, PGE2 by HTRF); format: biochemical; conditions: microsomes from CHO-K1 cells transfected with human mPGES-1; PGH2 1 μM, 4° C., 60 seconds; read-out: mPGES-1 Inhibition IC50
# Sequence of human mPGES-1 (O14684 whole entry): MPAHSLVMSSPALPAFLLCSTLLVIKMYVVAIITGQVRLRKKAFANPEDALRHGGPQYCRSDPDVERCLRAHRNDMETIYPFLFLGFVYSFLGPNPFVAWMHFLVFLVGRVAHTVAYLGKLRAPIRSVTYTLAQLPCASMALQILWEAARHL
# How it was run: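 PGE2 formation read by HTRF after 60 s at 4 °C with 1 μM PGH2 substrate, following 20 min compound preincubation (1% DMSO) with human mPGES-1 microsomes from transfected CHO-K1 cells. Buffer: potassium phosphate, reduced glutathione, pH 7.4; IC50 from activity relative to enzyme-free blank.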
# A549 cells = test: Inhibition of PGE2 production in A549 cell (IL-1β stimulated); format: cell-based, human; conditions: Homo sapiens, A549, 24 h, IL-1β 5 ng/well, PGE2 in culture medium
# How it was run: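 A549 cells preincubated 60 min with compound in RPMI/3% FBS (final DMSO 0.10), then stimulated with IL-1β (5 ng/well) for 24 h at 37 °C. PGE2 measured by HTRF and PGF2α by EIA in medium; IC50 from inhibition relative to stimulated minus unstimulated production.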
Compound,IC50 (human mPGES-1) [nM],IC50 (A549 cells) [nM]
"Cc1c(Cl)cccc1NC(=O)c1cc(NC(=O)c2ccccc2C(F)(F)F)cc2[nH]c(N3CCOCC3)nc12 [Example 156, N-(3-Chloro-2-methylphenyl)-2-(morpholin-4-yl)-6-({[2-(trifluoromethyl)phenyl]carbonyl}amino)-1H-benzimidazole-4-carboxamide]",1.6,24.6
"CN(C)c1nc2c(C(=O)Nc3ccc(C(C)(C)C)cc3)cc(NC(=O)c3ccccc3C(F)(F)F)cc2[nH]1 [Example 203, N-(4-tert-Butylphenyl)-2-(dimethylamino)-6-({[2-(trifluoromethyl)phenyl]carbonyl}amino)-1H-benzimidazole-4-carboxamide hydrochloride]",1.4,5.2
"Cc1c(Cl)cccc1NC(=O)c1cc(NC(=O)c2ccccc2C(F)(F)F)cc2[nH]c(CC(C)C)nc12 [Example 59, N-(3-Chloro-2-methylphenyl)-2-(2-methylpropyl)-6-({[2-(trifluoromethyl)phenyl]carbonyl}amino)-1H-benzimidazole-4-carboxamide hydrochloride]",2.1,12.9
"Cc1c(Cl)cccc1NC(=O)c1cc(NC(=O)c2ccccc2C(F)(F)F)cc2[nH]c([C@@H]3CCCN3)nc12 [Example 71, N-(3-Chloro-2-methylphenyl)-2-[(2S)-pyrrolidin-2-yl]-6-({[2-(trifluoromethyl)phenyl]carbonyl}amino)-1H-benzimidazole-4-carboxamide dihydrochloride]",33.1,227
"Cc1c(Cl)cccc1NC(=O)c1cc(NC(=O)c2ccccc2C(F)(F)F)cc2[nH]c([C@@H]3CCCN3C)nc12 [Example 72, N-(3-Chloro-2-methylphenyl)-2-[(2S)-1-methylpyrrolidin-2-yl]-6-({[2-(trifluoromethyl)phenyl]carbonyl}amino)-1H-benzimidazole-4-carboxamide]",9.8,60
"Cc1c(Cl)cccc1NC(=O)c1cc(NC(=O)c2ccc(Cl)cc2Cl)cc2[nH]c(N(C)C)nc12 [Example 184, N-(3-Chloro-2-methylphenyl)-6-{[(2,4-dichlorophenyl)carbonyl]amino}-2-(dimethylamino)-1H-benzimidazole-4-carboxamide hydrochloride]",1,138
"CCOc1nc2c(C(=O)NCc3ccccc3C(F)(F)F)cc(NC(=O)c3ccccc3C(F)(F)F)cc2[nH]1 [Example 56, 2-Ethoxy-N-[2-(trifluoromethyl)benzyl]-6-({[2-(trifluoromethyl)phenyl]carbonyl}amino)-1H-benzimidazole-4-carboxamide]",7.5,85
"COCc1nc2c(C(=O)Nc3c(F)cccc3F)cc(NC(=O)c3ccccc3C(F)(F)F)cc2[nH]1 [Example 40, N-(2,6-Difluorophenyl)-2-(methoxymethyl)-6-({[2-(trifluoromethyl)phenyl]carbonyl}amino)-1H-benzimidazole-4-carboxamide]",194,300
"Cc1c(Cl)cccc1NC(=O)c1cc(NC(=O)c2ccccc2C(F)(F)F)cc2[nH]c(C3(C(F)(F)F)CC3)nc12 [Example 89, N-(3-Chloro-2-methylphenyl)-2-[1-(trifluoromethyl)cyclopropyl]-6-({[2-(trifluoromethyl)phenyl]carbonyl}amino)-1H-benzimidazole-4-carboxamide]",1.2,2.1
"Cc1nc2c(C(=O)NC3CCCCC3)cc(NC(=O)c3ccccc3C(F)(F)F)cc2[nH]1 [Example 13, N-Cyclohexyl-2-methyl-6-({[2-(trifluoromethyl)phenyl]carbonyl}amino)-1H-benzimidazole-4-carboxamide hydrochloride]",35.1,75.6
"CCOCc1nc2c(C(=O)Nc3cccc(Cl)c3C)cc(NC(=O)c3ccccc3C(F)(F)F)cc2[nH]1 [Example 79, N-(3-Chloro-2-methylphenyl)-2-(ethoxymethyl)-6-({[2-(trifluoromethyl)phenyl]carbonyl}amino)-1H-benzimidazole-4-carboxamide hydrochloride]",15,285
"CCOCCc1nc2c(C(=O)Nc3cccc(Cl)c3C)cc(NC(=O)c3ccccc3C(F)(F)F)cc2[nH]1 [Example 78, N-(3-Chloro-2-methylphenyl)-2-(2-ethoxyethyl)-6-({[2-(trifluoromethyl)phenyl]carbonyl}amino)-1H-benzimidazole-4-carboxamide hydrochloride]",96.8,177
